This note sets out measurements from PMC5222732 (Journal of medicinal chemistry, 2016).

For data set [1], the system named is Sprague-Dawley rats. The data set is described as follows: Hot plate algesia test. The data set is classed as in vivo. The note with it: rat; for effect on morphine analgesia, heat withdrawal threshold (hot plate): morphine 4 mg/kg sc.
In data set [2] the test system is μ opioid receptor (MOR). The data set is classed as cell-based, guinea pig.
Data set [3] concerns the target mouse vas deferens (MVD), DOR (Mus musculus, UniProt P32300). The data set is described as follows: DOR-representative MVD functional assay. The data set is classed as cell-based.
Another data set has as its target κ opioid receptor (KOR) (Cavia porcellus, UniProt P41144). The data set is described as follows: GPI functional assay, κ antagonist Ke. The data set is classed as cell-based, guinea pig.
Data set [4] has as its target μ opioid receptor (MOR) (Rattus norvegicus, UniProt P33535). The data set is classed as binding.
In the next data set the target is δ receptors (DOR) (Rattus norvegicus, UniProt P33533). The data set is described as follows: δ opioid receptor binding, [3H]DSLET displacement from rat brain membranes. The note with it: compared with cyclodal.
Sequence of δ receptors (DOR) (P33533 whole entry): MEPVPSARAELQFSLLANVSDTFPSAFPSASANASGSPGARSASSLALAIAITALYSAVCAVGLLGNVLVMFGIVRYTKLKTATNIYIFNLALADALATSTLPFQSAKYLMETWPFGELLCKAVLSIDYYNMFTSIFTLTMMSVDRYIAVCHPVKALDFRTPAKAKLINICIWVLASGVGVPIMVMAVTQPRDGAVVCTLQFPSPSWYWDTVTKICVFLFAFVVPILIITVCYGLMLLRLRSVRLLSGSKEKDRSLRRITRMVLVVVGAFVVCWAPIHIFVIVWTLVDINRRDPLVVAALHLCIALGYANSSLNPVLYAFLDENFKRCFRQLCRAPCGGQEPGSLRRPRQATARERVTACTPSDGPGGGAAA
Data set [5] addresses bovine serum albumin (BSA) (Bos taurus, UniProt P02769). The data set is described as follows: Determination of serum albumin binding. The data set is classed as in vitro ADME. As to conditions: BSA 20 mg/mL, pH 7.4, 37 °C, 24-96 h.
Data set [6] is described as follows: In vivo brain uptake study, LC-MS/MS.
A further data set in a line: Plasma stability assay. The data set is classed as in vitro ADME. The note with it: 37 °C.
Data set [7] deals with Sprague-Dawley rats. The data set is described as follows: Tail heat algesia test. The data set is classed as in vivo. As to conditions: rat, 1 mg/kg iv, morphine 4 mg/kg sc.

Several values for one entry are separate records, joined by “and”; a condition that tells them apart may be missing. Identical values can stand only once. Like-named read-outs stand apart in the source and are kept apart here.

Sequence of mouse vas deferens (MVD), DOR (P32300 whole entry): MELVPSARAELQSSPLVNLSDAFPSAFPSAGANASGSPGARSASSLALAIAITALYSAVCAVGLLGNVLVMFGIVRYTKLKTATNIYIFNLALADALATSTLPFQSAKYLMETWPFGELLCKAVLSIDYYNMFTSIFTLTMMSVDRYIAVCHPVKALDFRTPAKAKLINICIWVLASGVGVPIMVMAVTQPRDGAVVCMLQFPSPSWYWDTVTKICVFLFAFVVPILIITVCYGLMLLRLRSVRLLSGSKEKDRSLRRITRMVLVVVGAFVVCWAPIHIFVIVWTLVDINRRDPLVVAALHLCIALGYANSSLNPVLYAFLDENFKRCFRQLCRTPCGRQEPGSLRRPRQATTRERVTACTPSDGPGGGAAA
Sequence of μ opioid receptor (MOR) (Rattus norvegicus, UniProt P33535) (P33535 whole entry): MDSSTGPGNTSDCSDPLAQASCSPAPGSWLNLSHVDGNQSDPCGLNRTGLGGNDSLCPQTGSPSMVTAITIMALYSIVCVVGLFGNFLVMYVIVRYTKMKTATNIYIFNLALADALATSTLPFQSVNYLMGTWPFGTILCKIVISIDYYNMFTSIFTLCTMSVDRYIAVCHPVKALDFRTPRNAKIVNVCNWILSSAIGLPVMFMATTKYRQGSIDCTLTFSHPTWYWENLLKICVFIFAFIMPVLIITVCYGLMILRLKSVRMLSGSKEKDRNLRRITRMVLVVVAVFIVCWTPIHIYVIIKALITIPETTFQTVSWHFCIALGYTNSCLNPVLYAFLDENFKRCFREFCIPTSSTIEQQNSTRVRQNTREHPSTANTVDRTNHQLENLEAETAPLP
Sequence of κ opioid receptor (KOR) (P41144 whole entry): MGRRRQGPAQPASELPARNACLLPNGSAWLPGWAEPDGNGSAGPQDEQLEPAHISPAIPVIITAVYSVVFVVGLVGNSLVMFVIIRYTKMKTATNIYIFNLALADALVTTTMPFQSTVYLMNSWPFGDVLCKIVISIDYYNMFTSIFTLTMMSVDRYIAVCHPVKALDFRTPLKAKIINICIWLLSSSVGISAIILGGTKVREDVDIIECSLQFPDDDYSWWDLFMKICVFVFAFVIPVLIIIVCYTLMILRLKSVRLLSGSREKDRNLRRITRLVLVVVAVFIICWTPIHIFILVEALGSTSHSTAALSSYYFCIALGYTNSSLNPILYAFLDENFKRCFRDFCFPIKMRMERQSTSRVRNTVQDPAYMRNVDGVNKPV
Sequence of bovine serum albumin (BSA) (P02769 25-607): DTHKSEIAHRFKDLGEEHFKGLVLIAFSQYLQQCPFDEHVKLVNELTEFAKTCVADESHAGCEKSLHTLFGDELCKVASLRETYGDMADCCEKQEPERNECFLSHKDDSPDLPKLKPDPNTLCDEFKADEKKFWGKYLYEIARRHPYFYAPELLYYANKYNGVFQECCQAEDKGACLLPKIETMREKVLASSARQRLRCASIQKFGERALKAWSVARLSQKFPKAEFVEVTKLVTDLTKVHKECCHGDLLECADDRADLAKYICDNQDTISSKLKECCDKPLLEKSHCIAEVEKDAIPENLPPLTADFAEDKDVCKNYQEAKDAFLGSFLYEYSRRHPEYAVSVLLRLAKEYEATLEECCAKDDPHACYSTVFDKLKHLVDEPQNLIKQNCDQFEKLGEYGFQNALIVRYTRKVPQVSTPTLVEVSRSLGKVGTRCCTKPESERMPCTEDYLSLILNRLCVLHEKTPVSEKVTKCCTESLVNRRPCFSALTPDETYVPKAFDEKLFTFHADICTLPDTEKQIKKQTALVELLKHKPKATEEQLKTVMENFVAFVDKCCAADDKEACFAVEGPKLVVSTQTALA

Turning to `CN1CC[C@]23c4c5ccc(O)c4O[C@H]2[C@@H](O)C=C[C@H]3[C@H]1C5` [morphine, reference compound], the “analgesia, heat withdrawal threshold (hot plate)” value in the data set with Sprague-Dawley rats [1] (4 mg/kg sc, compared to vehicle) was “produced analgesia compared to vehicle at the 30 and 60 min time points”.
`Cc1cc(O)cc(C)c1C[C@@H]1NC(=O)[C@H](CCCN)NC(=O)[C@H](Cc2ccccc2)NC(=O)[C@@H](CCCNC(=N)N)NC1=O` [compound 6, c[-D-Arg-Phe-Orn-Dmt-]]: the “GPI Ke^μ” value in the data set with μ opioid receptor (MOR) [2] was determined as 16.8 ± 2.6 nM. Moreover, the “activity in the MVD assay” value in [3] was “low efficacy partial agonist activity”.
As to `C[C@@H](O)[C@H](NC(=O)[C@H]1NC(=O)[C@H]([C@@H](C)O)NC(=O)[C@H](CCCN)NC(=O)[C@@H](Cc2c[nH]c3ccccc23)NC(=O)[C@H](Cc2ccc(O)cc2)NC(=O)[C@@H](NC(=O)[C@H](N)Cc2ccccc2)CSSC1(C)C)C(N)=O` [compound 10, H-D-Phe-c[Cys-Tyr-D-Trp-Orn-Thr-Pen]-Thr-NH2, reference compound], the Kb (in general, the affinity of an antagonist, worked out from how it opposes an agonist) at κ opioid receptor (KOR) is 6940 ± 580 nM. For the same molecule, the “GPI Ke^μ” value with μ opioid receptor (MOR) [2] was 40.9 ± 2.7 nM. The “activity in the MVD assay” value in data set [3] is listed as “low efficacy partial agonist activity”.
As to `Cc1cc(O)cc(C)c1C[C@@H]1NC(=O)C[C@H](CCCCN)NC(=O)[C@H](Cc2ccccc2)NC(=O)[C@@H](CCCNC(=N)N)NC1=O` [compound 7, c[-D-Arg-Phe-β-hLys-Dmt-]], at μ opioid receptor (MOR) [4], the “Ki ratio μ/δ/κ” value was 1/135/6 and the “reduced/lower MOR binding affinity” value worked out at 2 fold. Further, on κ opioid receptor (KOR), the Kb turned out to be 18.2 ± 1.7 nM and the “more potent KOR antagonist” value is reported as 2 fold. Also, in the data set on μ opioid receptor (MOR) [2], the “GPI Ke^μ” value is 10.5 ± 1.1 nM. Also, the “lower DOR binding affinity” value on δ receptors (DOR) was found to be 11 fold. Also, the “MVD IC50” value in [3] was “inactive”.
Turning to `Cc1cc(O)cc(C)c1C[C@H](N)C(=O)N[C@H](CCCNC(=N)N)C(=O)N[C@@H](Cc1ccccc1)C(=O)N[C@@H](CCCCN)C(N)=O` [compound 9, H-Dmt-D-Arg-Phe-Lys-NH2], the BSA absorption entry in [5] is “No decrease in peptide peak intensity was observed”. Besides, the “brain AUC” value in [6] (male CD1 mice, 2 mg/kg iv) was 0.352 µg·min/g. Also, in [6] (male, CD1, mouse, in vivo, iv, 2 mg/kg), the AUC (in general, the area under the concentration-time curve, a measure of exposure) was 83 ng·h/mL.
Regarding `Cc1cc(O)cc(C)c1C[C@@H]1NC(=O)[C@H](CCCCN)NC(=O)[C@H](Cc2ccccc2)NC(=O)[C@@H](CCCNC(=N)N)NC1=O` [compound 1, c[-D-Arg-Phe-Lys-Dmt-]], the “higher MOR binding affinity” value on μ opioid receptor (MOR) [4] stood at 20 fold. In addition, the BSA absorption entry in [5] is “No decrease in peptide peak intensity was observed”. Further, the “stability in rat plasma” value in the data set “Plasma stability assay” is “stable for up to 48 h”. Moreover, the “plasma AUC” value in data set [6] (male CD1 mice, 2 mg/kg iv) came to 0.0303 µg·min/mL. The “time of maximum brain concentration” value in [6] (mice, 2 mg/kg iv, after administration) came to 30 min. For the same molecule, the antagonist dissociation constant (Kb) was 206 ± 24 nM on κ opioid receptor (KOR) (GPI Ke (KOR antagonist), against dynorphin A(1-13)) and 40.3 ± 2.6 nM on κ opioid receptor (KOR) (GPI Ke^κ, determined against U50,488). Moreover, the “GPI Ke (MOR antagonist)” value in the data set on μ opioid receptor (MOR) [2] is 3.12 ± 0.20 nM and 3.06 ± 0.62 nM. Further, the “GPI Ke^μ” value in the data set on μ opioid receptor (MOR) [2] is listed as 3.26 ± 0.84 nM. Also, the “effect on morphine analgesia, heat withdrawal threshold (hot plate)” value is reported as “not at the 1 mg/kg dose” in the data set on Sprague-Dawley rats [1] (1 mg/kg iv) and “morphine analgesia at the 30 min time point was reduced” in the data set with Sprague-Dawley rats [1] (5 mg/kg iv). Besides, in the data set with Sprague-Dawley rats [7], the “effect on tail withdrawal latency (TWL) after morphine” value is given as “not at a dose of 1 mg/kg”. Besides, the “activity in the MVD assay” value in data set [3] is “low efficacy partial agonist activity”; in [3] (listed as cyclodal) it was “weak DOR partial agonist”.
With `CCCC[C@@H]1NC(=O)[C@H](Cc2ccccc2)NC(=O)[C@@H](CCCNC(=N)N)NC(=O)[C@H](Cc2c(C)cc(O)cc2C)NC1=O` [compound 4, c[-D-Arg-Phe-Nle-Dmt-]], the “activity in the MVD assay” value in data set [3] is given as “low efficacy partial agonist activity”.
